The target in assay [1] is T1, human NPS receptor variants (NPS Ile107 and Asn107) (Homo sapiens, UniProt Q6W5P4).
T1 sequence (Q6W5P4 1-371 N107I): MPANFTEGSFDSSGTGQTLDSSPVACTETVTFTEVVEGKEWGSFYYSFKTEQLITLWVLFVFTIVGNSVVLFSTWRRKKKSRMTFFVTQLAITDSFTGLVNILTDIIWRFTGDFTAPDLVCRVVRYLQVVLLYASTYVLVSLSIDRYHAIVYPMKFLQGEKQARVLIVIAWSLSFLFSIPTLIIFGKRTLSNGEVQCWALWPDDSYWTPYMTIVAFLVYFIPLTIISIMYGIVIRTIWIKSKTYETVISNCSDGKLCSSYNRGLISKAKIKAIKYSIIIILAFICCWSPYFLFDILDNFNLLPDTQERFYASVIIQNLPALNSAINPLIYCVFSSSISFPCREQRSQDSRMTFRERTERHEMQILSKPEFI
In words: Functional determination of EC50 by calcium mobilization in RD-HGA16 CHO cells overexpressing the NPS receptor. It counts as cell-based. The settings on record: FlexStation, mean of at least three independent experiments, receptor variant not given. An excerpt:
Functional Determinations of EC50: Identification of functional agonists at the NPS receptor was done utilizing RD-HGA16 cells (Molecular Devices), a Chinese Hamster Ovary cell line stably expressing the promiscuous Gq-protein Gα16. RD-HGA16 cells were engineered to stably overexpress the NPS receptor. Two individual cell lines were created that stably express one of two human NPS receptor variants (NPS Ile107 and Asn107). Cells were loaded with a calcium sensitive dye (Molecular Devices) for 1 h at 370 C and compounds were assayed in separate experiments for intrinsic activity as measured by increased fluorescence intensity as a marker of mobilization of internal calcium stores using a FlexStation fluorescence plate reader. Compounds were run as 8-point full log or half log concentration curves in duplicate in order to determine the EC50 of the test compound. Each compound was tested in at least three independent experiments. A three-parameter logistic equation was fit to the concentration response data with Prism Software (v5 for Windows, GraphPad Software; San Diego, Calif.) to calculate the EC50 values. The data represent the mean±SEM from at least three independent experiments. Table 1 lists the EC50 for certain compounds of Formula I or Formula II.
For orientation: Calcium assays in cells follow changes in intracellular calcium, usually with a dye or a luminescent sensor.

The target of assay [2] is T2, NPSR-C-Alt (Homo sapiens, UniProt Q6W5P4).
T2 sequence (Q6W5P4 1-377 isoform Q6W5P4-4): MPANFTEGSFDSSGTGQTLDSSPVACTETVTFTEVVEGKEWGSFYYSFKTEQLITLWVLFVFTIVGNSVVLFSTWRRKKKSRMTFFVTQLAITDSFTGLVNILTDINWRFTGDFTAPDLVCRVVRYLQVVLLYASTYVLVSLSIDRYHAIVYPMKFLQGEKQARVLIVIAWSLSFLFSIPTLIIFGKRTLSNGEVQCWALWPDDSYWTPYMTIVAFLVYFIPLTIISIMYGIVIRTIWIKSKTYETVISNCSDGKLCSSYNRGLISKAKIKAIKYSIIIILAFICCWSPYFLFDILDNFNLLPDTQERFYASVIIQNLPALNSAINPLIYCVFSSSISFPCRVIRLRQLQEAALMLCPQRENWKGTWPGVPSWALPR
As to the kind of experiment: Functional assay of NPS receptor isoforms. It is filed as cell-based. The settings on record: least potent at NPSR-C-Alt. The method, then: The neuropeptide S receptor has at least three known isoforms including the wild type NPS Asn^107, the NPS Asn107Ile and NPS C-Alt. Since each variant could potentially have functional difference, the agonist sensitivity of each isoform was evaluated.

In the case of `NC(=O)[C@@H]1CCCC[C@H]1NC(=O)CNC(=O)/C(=C/c1ccccc1)CCc1ccccc1` (relative stereo) [Compound R06039-675, Trans-2-(2-((E)-2-Benzylidene-4-phenylbutanamido)acetamido)cyclohexanecarboxamide], in assay [1], the EC50 (usually the concentration at which the effect is half-maximal) was found to be 0.213 µM.

In the case of `NC(=O)[C@H]1CCCC[C@@H]1OC(=O)CNC(=O)[C@H](Cc1ccccc1)NC(=O)c1ccccc1` [Compound R06039-636, (1S,2S)-2-carbamoylcyclohexyl-2-[(2S)-3-phenyl-2-(phenylformamido)propanamido]acetate], the EC50 in assay [1] amounted to 0.094 µM.

Turning to `NC(=O)C1C2CCC(CC2)C1NC(=O)CNC(=O)C(CCc1ccccc1)Cc1ccccc1` (centres unmarked) [Compound R06039-691, 3-[2-(2-Benzyl-4-phenylbutanamido)acetamido]bicyclo[2.2.2]octane-2-carboxamide], the EC50 in assay [1] worked out at 0.093 µM.

Turning to “hNPS: Human neuropeptide S, 20 residue peptide with the primary sequence SFRNGVGTGMKKTSFQRAKS (SEQ ID NO: 1) (Human)”, in assay [2], the “potency at NPSR-C-Alt, fold lower versus the 107I variant” value is on record as 30 fold.

Turning to `NC(=O)[C@@H]1CCCC[C@H]1NC(=O)CNC(=O)C(CCC1CCCCC1)Cc1ccccc1` (relative stereo) [Compound R06039-682, Trans-2-(2-(2-Benzyl-4-cyclohexylbutanamido)acetamido)cyclohexanecarboxamide], the EC50 in assay [1] was 0.894 µM.

On to `NCCCC[C@H](NC(=O)C(CCc1ccccc1)Cc1ccccc1)C(=O)NC1CCCCC1C(N)=O` (stereo partly drawn) [Compound R06039-693, 2-[(2S)-6-amino-2-(2-benzyl-4-phenylbutanamido)hexanamido]cyclohexane-1-carboxamide], for which the concentration for a half-maximal effect (EC50) in assay [1] was determined as 0.077 µM.

For the compound `NC(=O)[C@H]1CCCC[C@@H]1NC(=O)CNC(=O)/C=C/c1ccccc1` (racemic) [Compound R06039-655, (1R/S,2S/R)-2-(2-cinnamamidoacetamido)cyclohexanecarboxamide], the EC50 in assay [1] worked out at 2.11 µM.

As for `NCCCC[C@H](NC(=O)C(CCc1ccccc1)Cc1ccccc1)C(=O)NC1C2CCC(CC2)C1C(N)=O` (stereo partly drawn) [Compound R06039-696, 3-[(2S)-6-amino-2-(2-benzyl-4-phenylbutanamido)hexanamido]bicyclo[2.2.2]octane-2-carboxamide], the EC50 in assay [1] is 0.091 µM.

In the case of `NC(=O)[C@H]1CCCC[C@@H]1NC(=O)CNC(=O)C(Cc1ccccc1)c1ccccc1` (some centres unmarked) [Compound R06039-657, (1R/S,2S/R)-2-(2-(2,3-diphenylpropanamido)acetamido)cyclohexanecarboxamide], the EC50 in assay [1] amounted to 0.901 µM.

As to `NC(=O)[C@H]1CCCC[C@@H]1NC(=O)CNC(=O)C(Cc1ccccc1)Cc1ccccc1` (racemic) [Compound R06039-656, (1R/S,2S/R)-2-(2-(2-benzyl-3-phenylpropanamido)acetamido)cyclohexanecarboxamide], the EC50 in assay [1] worked out at 1.02 µM.

As to `NC(=O)[C@@H]1CCCC[C@H]1NC(=O)CNC(=O)[C@H](Cc1ccccc1)OCc1ccccc1` [Compound R06039-641, Trans-2-(2-((S)-2-(benzyloxy)-3-phenylpropanamido)acetamido)cyclohexanecarboxamide], the EC50 in assay [1] turned out to be 0.169 µM.

The values above are taken from patent US11142546B2, “Neuropeptide S receptor (NPSR) agonists” (Research Triangle Institute, priority 2016, dated 2021).
